Laboratory results from US20010005720A1, “METHOD OF TREATING CHRONIC P[…] SCARRING DISEASES” (U.S.A. AS REPRESENTED BY THE SECRETARY DEPARTMENT OF HEALTH …, priority 1995, published 2001).

How the values were obtained:
[1] = Wardle 1992; cited from earlier work
GH transgenic mice = experiment: GH transgenic mice, oral PPS sodium in drinking water; glomerular collagen by competitive PCR; type: in vivo, mouse; conditions: about 100 mg/kg, 10-12 weeks
Method: Six GH mice were treated for 10-12 weeks with oral PPS sodium (Elmiron®, Baker Norton Pharmaceuticals, Inc.) in their drinking water and six age-matched GH mice received tap water for the same duration. The amount of PPS sodium in the drinking water was about 100 mg/kg of animal body weight.
Glomeruli were isolated by microdissection in the presence of RNase inhibitors. The left kidney was perfused with saline followed by a collagenase solution containing soluble RNase inhibitors. The lower pole was removed prior to collagenase perfusion and snap frozen on dry ice for zymography. […]
Primers for mouse α1IV and α1I collagen, α smooth muscle cell actin, β-actin, laminin B1, tenascin, 92 kDa metalloproteinase and 72 kDa metalloproteinase mRNAs, and for bovine growth hormone genomic DNA, were synthesized on a PCR-Mate (Applied Biosystems, Foster City, Calif.). […] Primer specificity for mRNA was determined by omitting the reverse transcriptase enzyme. […] This permitted a rapid, non-quantitative assessment of mRNA levels. Thereafter, competitive PCR assays were utilized to measure α1IV collagen (and the ratio of α1IV collagen to GAPDH enzyme was calculated to normalize the data between animals), PDGF-B, α smooth muscle cell actin, β-actin, and laminin B1 cDNAs by constructing a cDNA mutant for each molecule, with a small internal deletion or a new restriction enzyme site. […]

Watanabe rabbits [2] = experiment: Watanabe rabbits Study B: oral PPS in drinking water, aortic intima/media histology; type: in vivo, rabbit; conditions: oral about 30 mg/kg/day in drinking water
Method: Twenty Watanabe rabbits were divided into four groups of five each, Groups A through D. All of the rabbits were fed the same high cholesterol diet (0.5% cholesterol). The animals of Groups A and B were given tap water to drink, while the animals of Groups C and D were given tap water containing 0.5 mg/mL of PPS sodium (Elmiron®). Based on observations of pre-study water consumption by the animals, the total daily dose of PPS sodium consumed by each animal in the treatment groups was about 30 mg/kg.
The animals of Groups A and C were euthanized and necropsied on day 50 of the study and their aortae examined.
The rabbits of Groups B and D were euthanized and necropsied on day 64 of the study. The aortae of these groups were examined histologically and the respective cross-sectional areas of the intimal and medial layers in various aortal branches were measured.

[3] = Paul et al. 1987; Wardle; cited from earlier work
[4] = system: normal mesangial cell layers; experiment: mRNA levels of selected molecules in normal mesangial cell layers exposed to PPS (reverse transcription); type: cell-based; conditions: PPS 100 μg/ml; day 1 compared with days 3 and 5
Source text: The control was β-actin, which was unchanged, consistent with the absence of proliferation in the treated cells.

normal mesangial cells [5] = experiment: DNA synthesis by [3H]thymidine incorporation in normal mesangial cells; type: cell-based; conditions: day one (24 hours); PPS 5-100 μg/ml; 20% fetal bovine serum
Method: (§1) Normal mesangial cells (8) were plated in basal medium plus 20% fetal bovine serum (Gibco, Grand Island, N.Y.) in 24-well plates (Nunc, PGC Scientific Corp., Gaithersburg, Md.) at a density of 2−2.5×10^4 cells/well. At 24 hours the medium was discarded, cells were washed twice with PBS and incubated for 24-72 h in serum-free medium with 0.1% bovine serum albumin (RIA grade, Sicjma). The medium was replaced with fresh basal medium plus 20% fetal bovine serum with or without 5-100 μg/ml of PPS or compared to standard heparin (100 μg/ml). Cells of duplicate wells were trypsinized and counted in an Elzone® cell counter (Particle Data Inc., Elmhurst, Ill.) at days +3 and +5. In parallel wells, thymidine incorporation was determined by adding 1 μCi/well of [^3H] thymidine ([methyl-^3H] thymidine); 2.0 Ci/mM; DuPont NEN, Boston, Mass.). Counts were determined at day 1 or at day 3.

Watanabe rabbits [6] = experiment: Watanabe rabbits Study A: subcutaneous PPS, morphometry of aortic lesions; type: in vivo, rabbit
Method: Twelve Watanabe rabbits were divided into two groups of six each (Group A and Group B) and fed a high cholesterol diet (0.5% cholesterol). The animals of Group A were treated daily with normal saline subcutaneously, while the animals of Group B were treated daily with 10 mg/kg of PPS sodium (Elmiron®) subcutaneously.
Four of the PPS-treated animals (Group B) died prior to completion of the study, one on day 22 and three between day 80 and day 86. On day 89, the animals of Group A and the two remaining animals of Group B were euthanized and necropsied and their tissues evaluated, particularly sections from different major branches of the aorta.

smooth muscle cell = conditions: Paul et al. 1987; Wardle; cited from earlier work
normal mesangial cells [7] = experiment: Cell growth (cell counts) in normal mesangial cells; type: cell-based
Method: as §1

[8] = 10 mg/kg/day s.c., day 89, 0.5% cholesterol diet
[9] = PPS vs control, 10 mg/kg/day s.c., day 89
[10] = all aortal cross-sections examined, 10 mg/kg/day s.c.

For Pentosan polysulfate [PPS], the “anticoagulant potency relative to heparin” value [1] is given as “about one-fifteenth”, the partial thromboplastin time [1] is given as “prolongs” and the “mean type IV collagen/GAPDH ratio in glomeruli relative to untreated (control) group” value (GH transgenic mice) is given as “less than half”. For the same substance, the “scarring-type collagen present in glomeruli vs untreated animals (confirmed by histology and immunofluorescent microscopy)” value (GH transgenic mice) was “considerably less”, the “atherosclerotic plaque development in intima, visual, vs control” value (Watanabe rabbits [2]; day 50, Group C vs Group A) was “less atherosclerotic plaque development” and the “mean intimal cross-sectional area in each aortal branch vs untreated” value (Watanabe rabbits [2]; day 64, Group D vs Group B) was “substantially less”. The “ratio of intima to medial areas in every aortal branch vs untreated” value (Watanabe rabbits [2]; day 64, Group D vs Group B) was “lower”, the hyperlipidemia [3] was “decreases” and the “92 kDa enzyme activity increase” value [4] was “more than 50%”. The “TGF-β mRNA reduction” value [4] was 50%, the “type I collagen mRNA” value [4] was “substantially decreased” and the “type IV collagen mRNA” value [4] was “no changes”. The “β-actin mRNA (control)” value [4] was “unchanged”, the “concentration at which the maximum dose-response plateaued (DNA synthesis, tritiated thymidine incorporation)” value (normal mesangial cells [5]) was 50 µg/mL and the “treated animals that died prior to completion of the study” value (Watanabe rabbits [6]; 10 mg/kg daily subcutaneously, group of six, one on day 22, three between day 80 and 86, high cholesterol diet) was “Four”. The “Plaque area, Abdominal Aorta” value (Watanabe rabbits [6]; [8]) was 0.04 cm^2, the “Plaque area, Ascending Aorta” value (Watanabe rabbits [6]; [8]) was 0.59 cm^2 and the “Smooth Muscle Layer area, Abdominal Aorta” value (Watanabe rabbits [6]; [8]) was 0.303 cm^2. For the same substance, the “Smooth Muscle Layer area, Ascending Aorta” value (Watanabe rabbits [6]; [8]) was 0.243 cm^2, the “Smooth Muscle Layer area, Thoracic Aorta” value (Watanabe rabbits [6]; [8]) was 0.334 cm^2 and the “Smooth Muscle/Plaque, Abdominal Aorta” value (Watanabe rabbits [6]; [8]) was 7.58. The “Smooth Muscle/Plaque, Ascending Aorta” value (Watanabe rabbits [6]; [8]) was 4.12, the “Smooth Muscle/Plaque, Thoracic Aorta” value (Watanabe rabbits [6]; [8]) was 1.184 and the “plaque in cross-section of abdominal aorta (FIG. 11 photograph)” value (Watanabe rabbits [6]; 10 mg/kg/day s.c., high cholesterol diet) was “almost no sign of plaque”. The “Fold decrease in Plaque Size, Abdominal Aorta” value (Watanabe rabbits [6]; [9]) was 10.2×, the “Fold decrease in Plaque Size, Ascending Aorta” value (Watanabe rabbits [6]; [9]) was 6.8× and the “Fold decrease in Plaque Size, Thoracic Aorta” value (Watanabe rabbits [6]; [9]) was 2.5×. For the same substance, the “plaque deposits in comparison with control rabbits” value (Watanabe rabbits [6]; [10]) was “much smaller”, the “ratio of smooth muscle layer to plaque, times higher than control rabbits” value (Watanabe rabbits [6]; [10]) was at most 6.8 times and the “smooth muscle cell proliferation” value (smooth muscle cell) was “inhibits”. The “potency relative to native heparin on a molar basis (cell growth inhibition)” value (normal mesangial cells [7]; PPS 100 μg/ml vs heparin 100 μg/ml, three and five days) was “roughly twice” and the “concentration of maximum inhibitory response (cell number)” value (normal mesangial cells [7]; day three, PPS 5-100 μg/ml, 20% fetal bovine serum) was 25 µg/mL.
